Measured values published in the supplement of paper PMC10307832.

Key:
Experiment in all cases: relative viability (nuclei count vs DMSO), 5 days (fraction); higher = more cells survive
[1] = compound: C=CC(=O)N1CCC[C@@H](n2nc(-c3ccc(Oc4ccccc4)cc3)c3c(N)ncnc32)C1 [Ibrutinib] + C[C@@H](Oc1cc(-c2cnn(C3CCNCC3)c2)cnc1N)c1c(Cl)ccc(F)c1Cl [Crizotinib] (partner 1 µM)
In short: (§1)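 A single step with final 0.05% Triton X-100, 1% formaldehyde and 1 ug/ml Hoechst fixed the cells and stained nuclei 5 days after treatment. Lung cancer cell lines in 1536-well plates had been treated by pin tool the day after seeding with one drug alone or a fixed anchor-drug dose plus five library-drug doses (not always all listed) in √10 steps, and nuclei were counted on 4× images. Relative viability is the ratio of nuclei in treated wells to nuclei in vehicle wells, taken as the median of duplicate plates.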

[2] = compound: C=CCc1cccc(/C=N/NC(=O)CN2CCN(Cc3ccccc3)CC2)c1O [PAC-1] + CC(C)C[C@H](NC(=O)[C@H](Cc1ccccc1)NC(=O)c1cnccn1)B(O)O [Bortezomib] (partner 0.002 µM)
In short: as §1

[3] = compound: C=CCc1cccc(/C=N/NC(=O)CN2CCN(Cc3ccccc3)CC2)c1O [PAC-1] + O=C(CCCCCCC(=O)Nc1ccccc1)NO [Vorinostat] (partner 1 µM)
In short: as §1

[4] = compound: C=CC(=O)N1CCC[C@@H](n2nc(-c3ccc(Oc4ccccc4)cc3)c3c(N)ncnc32)C1 [Ibrutinib] + CCNC(=O)c1noc(-c2cc(C(C)C)c(O)cc2O)c1-c1ccc(CN2CCOCC2)cc1 [Luminespib] (partner 0.01 µM)
In short: as §1

Row | Cell Line | relative viability ([1]; first compound 0.005 µM) | relative viability ([1]; first compound 0.01581 µM) | relative viability ([1]; first compound 0.05 µM) | relative viability ([1]; first compound 0.1581 µM) | relative viability ([1]; first compound 0.5 µM) | relative viability ([2]; first compound 0.02 µM) | relative viability ([2]; first compound 0.06325 µM) | relative viability ([2]; first compound 0.2 µM) | relative viability ([2]; first compound 2 µM) | relative viability ([3]; first compound 0.02 µM) | relative viability ([3]; first compound 0.06325 µM) | relative viability ([3]; first compound 0.2 µM) | relative viability ([3]; first compound 2 µM) | relative viability ([4]; first compound 0.005 µM) | relative viability ([4]; first compound 0.01581 µM) | relative viability ([4]; first compound 0.05 µM) | relative viability ([4]; first compound 0.1581 µM) | relative viability ([4]; first compound 0.5 µM)
1 | NCI-H2023 | 0.55 | 0.637 | 0.423 | 0.603 | 0.356 | 1.2 | 1.04 | 0.87 | 1.02 | 0.741 | 0.605 | 0.495 | 0.474 | 0.671 | 0.678 | 0.665 | 0.737 | 0.907
2 | NCI-H23 | 0.539 | 0.528 | 0.527 | 0.592 | 0.466 | 0.956 | 1.01 | 0.866 | 0.995 | 0.692 | 0.567 | 0.651 | 0.751 | – | 0.22 | – | – | 0.248
3 | CAL-12T | – | 0.589 | 0.582 | 0.718 | 0.301 | 0.95 | 1.09 | 1.1 | 0.925 | 0.89 | 0.793 | 0.688 | 0.712 | 0.417 | 0.14 | 0.416 | 0.276 | 0.302
4 | LCLC-97TM1 | 0.365 | 0.369 | – | 0.553 | 0.313 | 0.437 | 0.901 | 0.668 | 0.794 | 0.776 | 0.805 | – | 0.761 | 0.795 | 0.656 | 0.798 | 0.867 | 0.735
5 | NCI-H661 | – | – | 1.09 | 0.904 | 0.873 | 0.782 | 0.816 | 0.782 | 0.91 | 0.786 | 0.784 | 0.743 | 0.676 | 1 | 0.835 | 0.772 | 0.934 | 0.653
6 | NCI-H1915 | – | 0.858 | 0.92 | 0.921 | 0.897 | 0.995 | 0.964 | 0.907 | 1.02 | 0.507 | 0.506 | 0.427 | 0.562 | 0.824 | 0.85 | 0.819 | 0.857 | 0.69
7 | BEN | 0.952 | 0.962 | 0.803 | 0.67 | 0.943 | 0.742 | 0.77 | 0.797 | 0.725 | 0.558 | 0.58 | 0.552 | 0.601 | – | 0.292 | 0.318 | 0.307 | 0.462
8 | H3255 | 0.873 | 0.81 | 0.729 | 0.874 | 0.429 | 0.876 | 0.778 | 0.861 | 0.729 | 0.923 | 0.762 | 0.87 | 0.593 | 1.13 | 0.945 | – | 1.19 | 0.704
9 | NCI-H1437 | 0.848 | 0.874 | 0.901 | 1.02 | 0.916 | 0.513 | 0.525 | 0.414 | 0.383 | 0.831 | 0.816 | 0.717 | 0.563 | 1.13 | 1.16 | 1.11 | 1.14 | 1.12
10 | ChaGo-K-1 | 1.18 | 1.05 | 1.16 | – | 1.06 | 0.941 | 1.1 | 1.16 | 0.88 | 0.754 | 0.773 | 0.65 | 0.829 | 0.586 | 0.409 | 0.53 | 0.655 | 0.556
11 | NCI-H1755 | 0.832 | – | 0.909 | 0.909 | 0.852 | 0.99 | 0.961 | 0.938 | 0.907 | 0.777 | 0.787 | 0.774 | 0.718 | 0.318 | 0.617 | 0.55 | 0.313 | 0.531
12 | SK-LU-1 | 0.869 | 0.741 | 1.04 | 1.1 | 0.859 | 0.8 | 1.3 | 1.21 | 1.22 | 0.742 | 0.846 | 0.757 | 0.855 | 0.205 | 0.184 | 0.24 | 0.199 | 0.194
13 | HOP-62 | 0.988 | 0.947 | 1 | 0.948 | – | 0.976 | 0.986 | 0.836 | 0.673 | 0.596 | 0.518 | 0.473 | 0.655 | – | 0.881 | 0.958 | 0.935 | 0.918
14 | NCI-H2228 | 0.4 | 0.359 | 0.36 | 0.569 | 0.359 | 0.897 | 1.26 | 1.03 | 1.51 | 0.699 | 0.932 | 0.546 | 0.504 | 0.121 | – | 0.116 | 0.131 | 0.144
15 | SW 1573 | 0.87 | 0.807 | 0.803 | 0.986 | 0.77 | 0.947 | 1.08 | 1.01 | 1.13 | 0.693 | 0.649 | 0.571 | 0.861 | 0.419 | 0.382 | 0.198 | 0.288 | 0.582
16 | PC-14 | 0.886 | 0.968 | 0.896 | 0.901 | 0.563 | 0.937 | 0.953 | 0.754 | 0.927 | 0.816 | 0.764 | 0.629 | 0.743 | 0.167 | 0.266 | 0.135 | 0.127 | 0.179
17 | EMC-BAC-2 | 0.79 | 0.679 | 0.731 | 0.813 | 0.726 | 1.09 | 1.04 | 1.11 | 1.13 | 0.414 | 0.531 | 0.774 | 0.478 | 1.15 | 1.14 | 1.25 | 1.15 | 1.05
18 | NCI-H520 | 0.725 | 0.578 | 0.727 | 0.704 | 0.861 | 0.716 | 0.624 | 0.607 | 0.421 | 0.57 | 0.722 | 0.687 | 0.678 | 0.252 | 0.237 | 0.247 | 0.232 | 0.269
